# According to patent US7855297B2, “Amide derivatives and medicinal use thereof” (Mitsubishi Tanabe Pharma Corporation, priority 2000, dated 2010):
# pIC50: −log10 of the molar value.
# Legend:
# [1] = test system: C5a stimulated neutrophil; assay: Increase of intracellular Ca2+ concentration of C5a stimulated neutrophil; type: cell-based; details: human neutrophils
# Method: A neutrophil fraction was separately taken from human peripheral venous blood using Lympholyte-poly (Cedarlane), and suspended in Hank's Balanced Salt Solution (HBSS, GIBCO BRL) supplemented with 1% fetal bovine serum (FBS). Then, Fura 2-AM (final concentration 5 μM, DOJINDO) was added to the neutrophil fraction (5×10^6 cells/mL), and the mixture was incubated at 37° C. for 40 min. The cells were washed by centrifugation and suspended to the concentration of 1×10^6 cells/mL. The intracellular Ca^2+ concentration was measured using a spectrophotofluorometer (CAF-110, JASCO Corporation), and calculated from the ratio (Ex340 value/Ex380 value) of fluorescent intensities at 500 nm upon excitation at 340 nm and 380 nm, the former being Ex340 value, the latter being Ex380 value. […] Then, Triton X-100 (final concentration 0.2%) was added and the cells were dissolved, and sb2 value, which was the […] then, and Rmax value, which was the Ex340 value/Ex380 value then, was measured. Then, EGTA (final concentration 3 mmol/L) was added and sf2 value, which was the […] then, and Rmin value, which was the Ex340/Ex380 value then, was measured. From these measurement results, the intracellular Ca^2+ concentration was calculated from the following formula. […]
smiles,measurement,setting,value
"CC(C)c1ccc(N(Cc2ccc(N(C)C)cc2)C(=O)C2CCCc3ccccc32)cc1 (stereo not drawn) [Example 4, N-[(4-dimethylaminophenyl)methyl]-N-(4-isopropylphenyl)-1,2,3,4-tetrahydronaphthalene-1-carboxamide]",agonistic action (increase in intracellular Ca2+ by the compound alone),[1]; compound 3 μmol/L,did not induce an increase in intracellular Ca^2+ and the agonistic action was not found
same,pIC50,"[1]; recombinant human C5a 100 pmol/L, read-out: IC50 value, concentration at which increase in intracellular Ca2+ concentration of C5a-stimulated neutrophil is inhibited by 50%",8.30
same,melting point,,121 °C
